Measured values from US11059844B2, “Immune stimulating macrolides” (ISR IMMUNE SYSTEM REGULATION HOLDING AB (PUBL), priority 2017, dated 2021).

Key:
CD4+ T cells = experiment: IL-1beta secretion from CD4+ T cells (cytometric bead assay); assay type: cell-based, Human; settings: 2 days
Protocol: (§1) FIG. 13: IL1b secretion (as measured by cytometric bead assay) from PBMC, macrophages or CD4 T cells stimulated with indicated compound for 48 h.
(§2) Study 12: PBMCs, macrophages and CD4+ T cells where exposed to compounds 1 and 2 for 2 days.

[1] = tested on: E. coli, S. salivarius, L. casei, B. longum or M. luteus; experiment: Direct antibacterial activity, summary over all strains tested; assay type: cell-based; settings: summary in words of Table 1
Protocol: The bioactivity of macrolide compounds against 4 strains of common gut bacteria (Escherichia coli, Streptococcus salivarius subsp. salivarius, Lactobacillus casei and Bifidobacterium longum subsp. infantis) and common mammalian skin isolate Micrococcus luteus, was assessed using the Minimum Inhibitory Concentration (MIC) assay. Bacterial strains were purchased from DSMZ (Brunswick, Germany) except M. luteus which was obtained from NCIMB, and stored in 20% glycerol at −80° C. Stock solutions (100% DMSO) of positive controls (azithromycin and erythromycin), and of test compounds 1 and 2 were diluted in broth to working stock concentrations of 256 μg/ml (final assay testing concentration range 128 μg/ml to 0.00391 μg/ml). Stock solutions of all other compounds were diluted in broth to working stock concentrations of 128 μg/ml (final assay testing concentration range 64 μg/ml to 0.00195 μg/ml). Bacterial strains were cultivated in appropriate broth in an anaerobic chamber at 37° C., except for M. luteus which was incubated aerobically at 37° C. 18 h cultures were diluted in broth to an OD595 of 0.1 and then further diluted 1:10. In 96-well plates, in duplicate, 200 μl working stock of test compound was transferred to well 1 and serially diluted (1:2) in broth. 100 μl bacterial suspension was aliquoted into each well and mixed thoroughly. Appropriate sterility controls were included and plates were incubated in an anaerobic chamber, or aerobically (M. luteus) at 37° C. for 18 h. The MIC was determined to be the concentration of test compound in the first well with no visible growth.

[2] = tested on: peripheral blood mononuclear cells (PBMC); experiment: Marker expression on PBMC by flow cytometry; assay type: cell-based, Human; settings: 24 h
Protocol: (§3) Human peripheral blood mononuclear cells (PBMCs) were purified from healthy donors with Ficoll-Paque density centrifugation. Cells were cultured in complete RPMI-1640 media (Invitrogen) supplemented with 25 mM HEPES, L-glutamine, Sodium pyruvate (Sigma), 10% fetal bovine serum, 100 μg/mL penicillin and 100 μg/mL streptomycin (Hyclone) for 24-72 hours in 37° C., 5% CO2 and stimulated with and increasing concentrations of compound 1 and 2. Cells were then washed in PBS and stained with monoclonal antibodies specific for cell surface markers (BD Pharmingen) and analysed with flow cytomtetry using a BD FACS Canto II flow cytometer. All samples were tested in duplicates.
(§4) Human peripheral blood mononuclear cells (PBMCs) were purified from healthy donors with Ficoll-Paque density centrifugation. Cells were cultured in complete RPMI-1640 medium (Invitrogen) supplemented with 25 mM HEPES, L-glutamine, Sodium pyruvate (Sigma), 10% fetal bovine serum, 100 μg/mL penicillin and 100 μg/mL streptomycin (Hyclone). Cells were stimulated for 24 h (study 1-4) or 48 h to 1 week (study 5) in 37° C., 5% CO2 with increasing concentrations of compound 1 and 2 in tissue culture plates. The cells were removed from the plate, washed in PBS and analysed for expression of cell specific surface markers and MHC class I with flow cytomtery using monoclonal antibodies from BD Pharmingen and a FACS Canto II flow cytometer.

[3] = Body weight of mice after i.v. dosing; assay type: in vivo, C57bl/6 mice; settings: 5 mg/kg group (not shown)
Protocol: (§5) Study 13: Compound 1 was administered i.v. to C57bl/6 mice at 0.165 mg/kg to 5 mg/kg. CD25+ cell abundance was increased in animals receiving the highest dose of 5 mg/kg (FIG. 14), as was body weight in the same group (not shown).

[4] = tested on: Monocytes differentiated into macrophages; experiment: CD80 expression on monocytes differentiated into macrophages; assay type: cell-based, Human; settings: 24 h
Protocol: as §3
as §4, with “Cells were stimulated for 24 h (study 1-4) or 48 h to 1 week (study 5) in 37° C., 5% CO2 with increasing concentrations of compound 1 and 2 in tissue culture plates.” left out

PBMCs [5] = experiment: Supernatant IL-10 sandwich ELISA; assay type: cell-based, Human; settings: […] with 100 U/mL IL-2, 48 h and 7 days
Protocol: Supernatant IL-10 was measured with a standard sandwich ELISA (all antibodies from BD Biosciences) after 48 hours and 7 days incubation with 2.5 μM of compound 1 and 100 U/mL IL-2 (Miltenyi Biotechnologies) in complete RPMI media, 37° C., 5% CO2
Supernatant IL-10 was measured with a standard sandwich ELISA (all antibodies from BD Biosciences) after 48 hours and 7 days incubation with 2.5 uM of compound 1 and 100 U/mL IL-2 (Miltenyi Biotechnologies) in complete RPMI media, 37° C., 5% CO2.
This indicate an immune inhibitory effect under certain conditions (FIG. 5).

human TLR2 = biological target: T1, human TLR2 (Homo sapiens, UniProt O60603); experiment: TLR2 reporter assay (HEK-293-TLR, SEAP); assay type: cell-based
T1 construct: host or cells: recombinant HEK-293-TLR cell lines
Protocol: Samples and controls were tested in duplicate on recombinant HEK-293-TLR cell lines using a cell reporter assay at Invivogen using their standard assay conditions. These cell lines functionally over-express human TLR2 protein as well as a reporter gene which is a secreted alkaline phosphatase (SEAP). The production of this reporter gene is driven by an NFkB inducible promoter. The TLR reporter cell lines activation results are given as optical density values (OD).
20 μl of each test article were used to stimulate the hTLR2 reporter cell lines in a 200 μl of final reaction volume. Samples were tested in duplicate, with at least two concentrations tested—20 uM and 10 uM.
Compounds were tested using a TLR2 reporter assay (see general methods) that measured for stimulation of the TLR2 receptor. Stimulatory effect was measured as an increase in optical density (OD) due to release of secreted alkaline phosphatase (SEAP) and is shown in table 4: […]

CD25+ cells = experiment: CD25 expression in blood of mice after i.v. dosing; assay type: in vivo, C57bl/6 mice; settings: highest dose of 5 mg/kg, 24 h
Protocol: FIG. 14: % CD25high cells in blood of C57bl/6 mice injected 24 h previously with indicated dose of compound 1. CD25 expression was measured by flow cytometry.
as §5

PBMCs [6] = experiment: Cytokine/chemokine secretion from PBMCs (cytometric bead assay); assay type: cell-based, Human; settings: 2 days
Protocol: FIG. 11: Chemokine RANTES secretion (as measured by cytometric bead assay) from PBMC or macrophages stimulated with indicated compound for 48 h.
FIG. 12: IL12p70 secretion (as measured by cytometric bead assay) from PBMC or macrophages stimulated with indicated compound for 48 h.
as §1
Study 10: PBMCs and macrophages where exposed to compounds 1 or 2 for 2 days (FIG. 11).
Study 11: PBMCs and macrophages where exposed to compounds 1 and 2 for 2 days.
as §2

T1 sequence (O60603 21-784): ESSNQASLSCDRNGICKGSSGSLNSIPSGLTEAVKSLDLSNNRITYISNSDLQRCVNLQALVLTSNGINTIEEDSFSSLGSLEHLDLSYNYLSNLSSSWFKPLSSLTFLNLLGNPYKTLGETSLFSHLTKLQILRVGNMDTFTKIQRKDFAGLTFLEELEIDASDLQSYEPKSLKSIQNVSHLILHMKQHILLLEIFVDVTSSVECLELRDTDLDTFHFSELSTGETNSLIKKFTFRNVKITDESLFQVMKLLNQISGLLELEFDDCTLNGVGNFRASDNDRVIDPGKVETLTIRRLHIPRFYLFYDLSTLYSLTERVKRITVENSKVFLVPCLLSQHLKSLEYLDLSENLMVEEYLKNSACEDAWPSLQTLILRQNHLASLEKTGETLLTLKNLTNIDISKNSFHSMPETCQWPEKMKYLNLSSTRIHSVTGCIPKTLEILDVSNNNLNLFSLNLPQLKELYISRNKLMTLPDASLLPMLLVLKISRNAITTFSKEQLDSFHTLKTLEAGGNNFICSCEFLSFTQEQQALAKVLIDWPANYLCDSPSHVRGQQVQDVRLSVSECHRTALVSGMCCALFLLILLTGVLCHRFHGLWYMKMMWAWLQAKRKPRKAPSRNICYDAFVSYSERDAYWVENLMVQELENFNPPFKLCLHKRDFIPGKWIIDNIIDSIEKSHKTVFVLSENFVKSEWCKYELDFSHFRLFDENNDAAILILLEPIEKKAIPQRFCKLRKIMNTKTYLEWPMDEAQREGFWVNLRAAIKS

CC[C@H]1OC(=O)[C@H](C)[C@@H](O[C@H]2C[C@@H](N(C)C)[C@H](O)[C@@H](C)O2)[C@H](C)[C@@H](O)[C@](C)(O)C[C@@H](C)CN(C)[C@H](C)[C@@H](O)[C@]1(C)O [Compound 1]
IL-1beta secretion, CD4+ T cells (CD4+ T cells): no IL-1beta was induced | antibacterial activity against the bacterial strains tested [1]: no antibacterial activity | activation marker CD69 on CD4+ T cells and B cells ([2]; 1 μM): upregulated | MHC class I (HLA-ABC) on T- and B-cells [2]: upregulation | MHC class II (HLA-DR) on monocytes [2]: upregulation | co-stimulatory molecule CD80 on monocytes [2]: upregulation | body weight [3]: increased | CD80 on macrophages [4]: upregulated | production of IL-10 (PBMCs [5]): increased production | lowest concentration at which TLR2 was stimulated (concentrations down to) (human TLR2): 5 µM | OD after addition of 5 μM test article (human TLR2; 5 μM): 0.111 OD | OD after addition of 10 μM test article (human TLR2; 10 μM): 0.202 OD | OD after addition of 20 μM test article (human TLR2; 20 μM): 0.458 OD | CD25+ cell abundance (CD25+ cells): increased | IL-1beta secretion, PBMCs (PBMCs [6]): slightly | IL-12p70 secretion, PBMCs (PBMCs [6]): secreted IL-12p70 | RANTES expression, PBMCs (PBMCs [6]): twofold upregulation
